Data: article PMC6173055, “Structure and function of a glycoside hydrolase family 8 endoxylanase from Teredinibacter turnerae” (Acta Crystallographica. Section D, Structural Biology, 2018)

Biological target: T1, TtGH8 (Teredinibacter turnerae, UniProt C5BJ89)
T1 construct: gene TERTU_4506; catalytic domain, residues 41-436; signal peptide and linker removed; N-terminal His6 tag cut off with 3C protease; codon-optimised, expressed in E. coli BL21
Assay: thermal shift (SYPRO Orange)
Type: binding
Conditions: 10 mM ligand

T1 sequence (C5BJ89 entry or part of it): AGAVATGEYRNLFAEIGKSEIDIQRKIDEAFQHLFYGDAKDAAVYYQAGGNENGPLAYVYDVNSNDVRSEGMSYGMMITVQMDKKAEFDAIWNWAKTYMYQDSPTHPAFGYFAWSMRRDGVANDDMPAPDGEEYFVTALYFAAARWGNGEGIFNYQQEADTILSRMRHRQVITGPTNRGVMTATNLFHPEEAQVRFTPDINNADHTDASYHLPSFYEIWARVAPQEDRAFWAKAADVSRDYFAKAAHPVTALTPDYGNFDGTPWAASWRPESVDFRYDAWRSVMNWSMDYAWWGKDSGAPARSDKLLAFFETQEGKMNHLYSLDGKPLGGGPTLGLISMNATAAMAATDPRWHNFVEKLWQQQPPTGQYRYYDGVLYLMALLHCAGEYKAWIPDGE

## OC1OC[C@@H](O[C@@H]2OC[C@@H](O[C@@H]3OC[C@@H](O[C@@H]4OC[C@@H](O[C@@H]5OC[C@@H](O[C@@H]6OC[C@@H](O)[C@H](O)[C@H]6O)[C@H](O)[C@H]5O)[C@H](O)[C@H]4O)[C@H](O)[C@H]3O)[C@H](O)[C@H]2O)[C@H](O)[C@H]1O (stereo partly shown) [X6, xylohexaose]
  increase in melting temperature: 2.9 °C
